We go through 65 molecules from ChEMBL document CHEMBL5104162, “Potent inhibitory activity of hydroxylated 2-benzylidene-3,4-dihydronaphthalen-1(2H)-ones on LPS-stimulated reactive oxygen species production in RAW 264.7 macrophages” (Bioorg Med Chem Lett, 2022).

pIC50: −log10 of the molar value. Bounds are passed on as bounds.

Data set [1] in a line: Cytotoxicity against mouse RAW264.7 cells assessed as cell viability at 10 uM by MTS assay relative to control.
For data set [2], the system named is RAW264.7. The data set can be described thus: Inhibition of ROS production in LPS-induced mouse RAW264.7 cells. The data set is classed as functional, cell-based.

On to `O=C1/C(=C/c2ccc(O)cc2)CCc2cc(O)ccc21`, for which, in data set [1], the viability at 10 µM is below 90%.

On to `O=C1/C(=C/c2ccncc2)CCc2ccc(O)cc21`, for which, in data set [1], the viability at 10 µM was above 90%. Also, the pIC50 in data set [2] was 5.63.

Regarding `O=C1/C(=C/c2ccccc2Br)CCc2cc(O)ccc21`, the viability at 10 µM in data set [1] was above 90%. The pIC50 in data set [2] was 5.97.

`O=C1/C(=C/c2cccc(O)c2)CCc2c(O)cccc21`: the viability at 10 µM in data set [1] was below 90%.

For `O=C1/C(=C/c2ccccc2)CCc2c(O)cccc21`, the viability at 10 µM in data set [1] was below 90%.

Consider `O=C1/C(=C/c2ccc(O)cc2)CCc2ccc(O)cc21`, for which the viability at 10 µM in data set [1] is below 90%.

Regarding `O=C1/C(=C/c2ccc(Cl)cc2)CCc2cc(O)ccc21`, the viability at 10 µM in data set [1] is above 90%. Further, the pIC50 in data set [2] is 5.61.

Regarding `O=C1/C(=C/c2cccc(F)c2)CCc2ccc(O)cc21`, the viability at 10 µM in data set [1] is above 90%. Also, in data set [2], the negative-log IC50 (pIC50) is 6.08.

Regarding `O=C1/C(=C/c2ccc(F)cc2)CCc2cc(O)ccc21`, the viability at 10 µM in data set [1] was above 90%. The pIC50 in data set [2] is 5.86.

Turning to `O=C1/C(=C/c2cccc(OC(F)(F)F)c2)CCc2cc(O)ccc21`, in data set [1], the viability at 10 µM was above 90%. The same molecule had a pIC50 in data set [2] of 6.28.

Take `O=C1/C(=C/c2ccc(Br)cc2)CCc2cc(O)ccc21`: the viability at 10 µM in data set [1] is above 90%. This molecule also had a pIC50 in data set [2] of 5.82.

`O=C1/C(=C/c2ccccc2OC(F)(F)F)CCc2cc(O)ccc21`: the viability at 10 µM in data set [1] is below 90%.

For the molecule `O=C1/C(=C/c2ccccc2Br)CCc2ccc(O)cc21`, the viability at 10 µM in data set [1] was above 90%. The molecule also showed a negative-log IC50 (pIC50) in data set [2] of 6.30.

As to `O=C1/C(=C/c2ccccc2C(F)(F)F)CCc2cc(O)ccc21`, in data set [1], the viability at 10 µM was below 90%.

In the case of `O=C1/C(=C/c2ccc(Br)cc2)CCc2ccc(O)cc21`, the viability at 10 µM in data set [1] was above 90%. Further, in data set [2], the pIC50 is 6.10.

With `O=C1/C(=C/c2cccc(C(F)(F)F)c2)CCc2c(O)cccc21`, the viability at 10 µM in data set [1] was above 90%. The negative-log IC50 (pIC50) in data set [2] was 5.71.

With `O=C1/C(=C/c2cccc(OC(F)(F)F)c2)CCc2c(O)cccc21`, the viability at 10 µM in data set [1] was below 90%.

On to `O=C1/C(=C/c2ccc(C(F)(F)F)cc2)CCc2cc(O)ccc21`, for which the viability at 10 µM in data set [1] is above 90%. This molecule showed a pIC50 in data set [2] of 5.49.

With `O=C1/C(=C/c2ccccc2Cl)CCc2ccc(O)cc21`, the viability at 10 µM in data set [1] is above 90%. This molecule also gave a pIC50 in data set [2] of 6.57.

Turning to `O=C1/C(=C/c2ccc(O)cc2)CCc2c(O)cccc21`, the viability at 10 µM in data set [1] is below 90%.

For the molecule `O=C1/C(=C/c2cccnc2)CCc2ccc(O)cc21`, in data set [1], the viability at 10 µM was above 90%. This molecule had a pIC50 in data set [2] of 5.52.

In the case of `O=C1/C(=C/c2cccc(Br)c2)CCc2c(O)cccc21`, the viability at 10 µM in data set [1] is above 90%. Besides, in data set [2], the negative-log IC50 (pIC50) is 5.77.

Consider `O=C1/C(=C/c2ccc(F)cc2)CCc2ccc(O)cc21`, for which the viability at 10 µM in data set [1] was above 90%. The pIC50 in data set [2] was 6.08.

`O=C1/C(=C/c2ccccc2Cl)CCc2c(O)cccc21`: in data set [1], the viability at 10 µM is above 90%. In data set [2], this molecule gave a pIC50 of 5.89.

Regarding `O=C1/C(=C/c2ccc(C(F)(F)F)cc2)CCc2ccc(O)cc21`, in data set [1], the viability at 10 µM was above 90%. In data set [2], this molecule showed a pIC50 below 5.00.

Turning to `O=C1/C(=C/c2ccccc2F)CCc2cc(O)ccc21`, the viability at 10 µM in data set [1] was above 90%. For the same molecule, the negative-log IC50 (pIC50) in data set [2] is 5.76.

As for `O=C1/C(=C/c2cccc(Br)c2)CCc2ccc(O)cc21`, the viability at 10 µM in data set [1] is above 90%. In data set [2], the negative-log IC50 (pIC50) was 6.32.

Take `O=C1/C(=C/c2ccccc2C(F)(F)F)CCc2ccc(O)cc21`: in data set [1], the viability at 10 µM is above 90%. In addition, the negative-log IC50 (pIC50) in data set [2] was 5.99.

Take `O=C1/C(=C/c2ccc(Cl)cc2)CCc2c(O)cccc21`: the viability at 10 µM in data set [1] was below 90%.

As for `O=C1/C(=C/c2ccccn2)CCc2c(O)cccc21`, the viability at 10 µM in data set [1] is above 90%. In data set [2], this molecule had a negative logarithm of the IC50 (pIC50) of 6.13.

Take `O=C1/C(=C/c2ccc(OC(F)(F)F)cc2)CCc2c(O)cccc21`: the viability at 10 µM in data set [1] is below 90%.

With `O=C1/C(=C/c2ccccc2)CCc2ccc(O)cc21`, the viability at 10 µM in data set [1] was above 90%. In data set [2], this molecule had a negative logarithm of the IC50 (pIC50) of 6.15.

For `O=C1/C(=C/c2ccccn2)CCc2cc(O)ccc21`, the viability at 10 µM in data set [1] was above 90%. The molecule further had a negative-log IC50 (pIC50) in data set [2] below 5.00.

In the case of `O=C1/C(=C/c2cccc(Cl)c2)CCc2ccc(O)cc21`, the viability at 10 µM in data set [1] is above 90%. This molecule also gave a pIC50 in data set [2] of 6.68.

As for `O=C1/C(=C/c2ccc(OC(F)(F)F)cc2)CCc2cc(O)ccc21`, the viability at 10 µM in data set [1] was above 90%. The same molecule had a pIC50 in data set [2] of 5.87.

Regarding `O=C1/C(=C/c2ccccc2F)CCc2c(O)cccc21`, the viability at 10 µM in data set [1] was below 90%.

With `O=C1/C(=C/c2cccc(Cl)c2)CCc2c(O)cccc21`, the viability at 10 µM in data set [1] is below 90%.

With `O=C1/C(=C/c2cccnc2)CCc2c(O)cccc21`, the viability at 10 µM in data set [1] was above 90%. In data set [2], the pIC50 is 5.53.

`O=C1/C(=C/c2ccc(Br)cc2)CCc2c(O)cccc21`: the viability at 10 µM in data set [1] was below 90%.

As for `O=C1/C(=C/c2ccccc2O)CCc2c(O)cccc21`, the viability at 10 µM in data set [1] was below 90%.

Consider `O=C1/C(=C/c2cccc(F)c2)CCc2cc(O)ccc21`, for which the viability at 10 µM in data set [1] was above 90%. This molecule also had a pIC50 in data set [2] of 5.91.

`O=C1/C(=C/c2cccc(C(F)(F)F)c2)CCc2cc(O)ccc21`: the viability at 10 µM in data set [1] was above 90%. The same molecule gave a pIC50 in data set [2] of 6.74.

With `O=C1/C(=C/c2ccccc2Br)CCc2c(O)cccc21`, the viability at 10 µM in data set [1] was above 90%. The molecule further gave a negative logarithm of the IC50 (pIC50) in data set [2] of 5.91.

As for `O=C1/C(=C/c2cccc(O)c2)CCc2cc(O)ccc21`, in data set [1], the viability at 10 µM was above 90%. In data set [2], this molecule showed a negative logarithm of the IC50 (pIC50) of 5.45.

Consider `O=C1/C(=C/c2ccc(F)cc2)CCc2c(O)cccc21`, for which the viability at 10 µM in data set [1] was below 90%.

`O=C1/C(=C/c2ccccc2F)CCc2ccc(O)cc21`: in data set [1], the viability at 10 µM is above 90%. In data set [2], this molecule showed a negative-log IC50 (pIC50) of 5.87.

As to `O=C1/C(=C/c2ccccc2Cl)CCc2cc(O)ccc21`, in data set [1], the viability at 10 µM was above 90%. In addition, in data set [2], the pIC50 is 5.72.

Take `O=C1/C(=C/c2ccccc2)CCc2cc(O)ccc21`: in data set [1], the viability at 10 µM was above 90%. In data set [2], this molecule showed a pIC50 of 5.88.

In the case of `O=C1/C(=C/c2cccc(OC(F)(F)F)c2)CCc2ccc(O)cc21`, in data set [1], the viability at 10 µM was below 90%.

On to `O=C1/C(=C/c2cccnc2)CCc2cc(O)ccc21`, for which the viability at 10 µM in data set [1] is above 90%. This molecule had a negative-log IC50 (pIC50) in data set [2] of 5.69.

Regarding `O=C1/C(=C/c2cccc(C(F)(F)F)c2)CCc2ccc(O)cc21`, the viability at 10 µM in data set [1] is below 90%.

Consider `O=C1/C(=C/c2ccc(OC(F)(F)F)cc2)CCc2ccc(O)cc21`, for which the viability at 10 µM in data set [1] was above 90%. Further, the negative-log IC50 (pIC50) in data set [2] is 6.01.

Regarding `O=C1/C(=C/c2ccc(Cl)cc2)CCc2ccc(O)cc21`, the viability at 10 µM in data set [1] is above 90%. This molecule also showed a negative-log IC50 (pIC50) in data set [2] of 5.96.

As for `O=C1/C(=C/c2cccc(Br)c2)CCc2cc(O)ccc21`, in data set [1], the viability at 10 µM is above 90%. In data set [2], this molecule gave a pIC50 of 5.94.

For `O=C1/C(=C/c2ccccc2OC(F)(F)F)CCc2c(O)cccc21`, the viability at 10 µM in data set [1] is below 90%.

Take `O=C1/C(=C/c2ccccc2O)CCc2ccc(O)cc21`: the viability at 10 µM in data set [1] was below 90%.

Consider `O=C1/C(=C/c2ccc(C(F)(F)F)cc2)CCc2c(O)cccc21`, for which the viability at 10 µM in data set [1] is below 90%.

Turning to `O=C1/C(=C/c2ccccc2O)CCc2cc(O)ccc21`, in data set [1], the viability at 10 µM was above 90%. In data set [2], this molecule showed a negative logarithm of the IC50 (pIC50) of 6.26.

As for `O=C1/C(=C/c2ccccn2)CCc2ccc(O)cc21`, the viability at 10 µM in data set [1] was below 90%.

As to `O=C1/C(=C/c2ccccc2OC(F)(F)F)CCc2ccc(O)cc21`, the viability at 10 µM in data set [1] was above 90%. The same molecule gave a negative-log IC50 (pIC50) in data set [2] of 6.38.

Consider `O=C1/C(=C/c2cccc(O)c2)CCc2ccc(O)cc21`, for which the viability at 10 µM in data set [1] was above 90%. This molecule also gave a pIC50 in data set [2] of 6.09.

Regarding `O=C1/C(=C/c2cccc(F)c2)CCc2c(O)cccc21`, in data set [1], the viability at 10 µM is below 90%.

Regarding `O=C1/C(=C/c2ccccc2C(F)(F)F)CCc2c(O)cccc21`, the viability at 10 µM in data set [1] is above 90%. In data set [2], this molecule gave a negative-log IC50 (pIC50) of 5.42.

On to `O=C1/C(=C/c2cccc(Cl)c2)CCc2cc(O)ccc21`, for which the viability at 10 µM in data set [1] is above 90%. In data set [2], this molecule had a pIC50 of 5.76.

Consider `O=C1/C(=C/c2ccncc2)CCc2c(O)cccc21`, for which, in data set [1], the viability at 10 µM was above 90%. Besides, the pIC50 in data set [2] is 5.38.

The term viability denotes a per cent measure of how many cells are alive, often set against a control. As usually defined, the pIC50 is the IC50 on a negative log10 scale, so that one unit is a factor of ten. Lower therefore signals a high IC50.
